“Also recorded” adds a separate entry of the source.

We go through one molecule from paper PMC11610669, “A Spectroscopic Study on the Amyloid‐β Interaction with Clicked Peptide‐Porphyrin Conjugates: a Vision Toward the Detection of Aβ Peptides in Aqueous Solution” (Chembiochem, 2024).

The assay addresses Aβ42 (Homo sapiens, UniProt P05067). The assay can be described thus: Sensing: induced CD in porphyrin Soret region with Aβ42. Format: binding. The following applies: Aβ42 20 μM, 1:1, 350–500 nm, 10 mM phosphate buffer pH 7.4. The procedure: The Grating‐Coupled Interferometry (GCI) is a widely used analytical technique for characterizing intermolecular interactions. It allows quantitative measurements of both the affinity and the kinetics of the binding events. This high sensitivity label‐free method was exploited to measure the interactions of Aβ42 with Cu‐Ph‐Pep , Ph‐Pep , and Zn‐Ph‐Pep (Figure 5S). Control experiments with pristine MCPTPyP and the peptide GPGKLVFF ( Pep ) were carried out for comparison. The calculated association and dissociation kinetic constants (kon and koff, respectively) and the thermodynamic binding constant (KD), are summarized in Table 1. The obtained values indicate that all the conjugates show good affinities with Aβ42. It is also clear from Table 1 that the peptide moiety is fundamental for the molecular recognition of the Aβ42 peptide.[48] […] For the sake of comparison, the CD spectra of the porphyrin‐peptide conjugates at 20 μM were also recorded in the same experimental conditions, both in the far‐UV and Visible regions (Figure 6S).
Spectra were recorded on a J‐810 spectrometer (Jasco, Japan) under a constant flow of N2 at room temperature. […] All aggregation kinetics were monitored up to 120 hours. The CD spectra were recorded for Aβ42 (5 μM and 20 μM) monomer in the absence or in the presence of porphyrin‐peptide conjugates (5 μM and 20 μM for the 1 : 1 molar ratios). […]

Sequence of Aβ42 (P05067 672-713 limits assumed): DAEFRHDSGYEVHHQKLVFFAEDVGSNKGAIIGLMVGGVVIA

As for `COC(=O)[C@H](Cc1cn(CCCC[C@H](NC(=O)CNC(C)=O)C(=O)N2CCC[C@H]2C(=O)NCC(=O)N[C@@H](CCCCN)C(=O)N[C@@H](CC(C)C)C(=O)N[C@H](C(=O)N[C@@H](Cc2ccccc2)C(=O)N[C@@H](Cc2ccccc2)C(N)=O)C(C)C)nn1)NC(=O)c1ccc(-c2c3nc(c(-c4cc[n+](C)cc4)c4ccc([nH]4)c(-c4cc[n+](C)cc4)c4nc(c(-c5cc[n+](C)cc5)c5ccc2[nH]5)C=C4)C=C3)cc1` [Zn‐Ph‐Pep], the “induced CD signal in Soret region with Aβ42” value was “induced dichroic signal; also recorded: generates a distinct CD signal”.
